# In US10870662B2, “Alpha-amino pateamine A derivatives and methods for treating chronic lymphocytic leukemia” (The Texas A&M University System, priority 2015, dated 2020):
# Where two headings read alike, the source gives them in different places.
# What was measured:
# [1] = tested on: chronic lymphocytic leukemia (CLL) cells; assay: CLL cell killing assay (annexin V / propidium iodide flow cytometry, 24 h); type: cell-based, human; details: primary CLL cells
# Experimental: Biological Activity of 2-Amino Pateamine Derivatives Peripheral blood from the CLL patients were collected in heparin vacutainer tubes and centrifuged at 1500 rpm for 15 min to separate the plasma. The plasma (upper layer) was removed and saved for cell culture. The lower layer was diluted with phosphate-buffered saline (PBS), and the mononuclear cells were isolated by Ficoll density-gradient centrifugation. The isolated CLL cells were cultured at 1×10^7 cells/mL in RPMI 1640 medium containing 10% of fetal bovine serum, 10% autologous plasma, or 50% autologous plasma. Cell death in CLL lymphocytes was evaluated by flow cytometry analysis using annexin V and propidium iodide (PI) double staining. After incubation with increasing concentrations of PatA analogs for 24 hours, CLL cells (1×10^6 cells) were stained in 100 μL binding buffer with 5 μL annexin-Cy5, and incubated for 15 minutes in dark at room temperature. After staining, 300 μL binding buffer with 5 μL of 50 μg/mL propidium iodide were added to each tube. Samples were analyzed immediately by flow cytometer. Cells stained positive for either annexin V or PI were considered dead cells. The IC50 values of CLL killing were determined by non-linear fitting of the survival curve by the GraphPad Prism software.
# [2] = Plasma protein binding (PPB) assay; type: in vitro ADME; details: preliminary data
# Experimental: In this example, a representative plasma protein binding (PPB) assay used to provide the plasma protein binding data is described.
# The assay includes the following steps.
# 1. Frozen plasma was thawed and centrifuged at 1120 g for 10 min to remove any particulates. The plasma was decanted, the pH was measured and, if required, was adjusted to pH7.4 with lactic acid.
# 2. All compounds were prepared at 10 mM concentration in DMSO. The solutions were carefully vortexed to ensure the compounds dissolved. The 10 mM DMSO solutions were diluted to 500 μM MeOH solutions (5+95 μl).
# 3. In a 2 mL 96-well plate (DWP), 1000 μL of plasma was pipetted into each well in Columns 1-4.
# 4. 10 μL of the 500 μM compound solution was pipetted to 1000 μL of corresponding plasma. (The final DMSO=0.05%). The solution was capped and carefully vortexed for 5 min.
# 5. 200 μL of PBS buffer was added to each receiver well of the dialysis plate (buffer was added to the Receiver first).
# 6. The bottom of dialysis plate was capped and turned over to the orange donor side (top) of dialysis plate.
# 7. The orange donor side of the dialysis plate was uncapped and 200 μL of the […] drug/plasma samples were transferred from the 2 ml 96-DWP to the corresponding donor wells in the dialysis plate. […]
# 23. The samples in the Receiver Plate, Donor Plate, and Recovery Plate were analyzed by LC/MS/MS […]
# [3] = tested on: models of human leukemia and melanoma; details: mice; cited from earlier work
# [4] = tested on: P388 murine leukemia cells; details: read-out: IC50, cytotoxic activity against P388 murine leukemia cells; cited from earlier work
# [5] = CLL cell, RPMI 1640 with 10% autologous (human) plasma, read-out: IC50 CLL Assay, 10% plasma
# [6] = Homo sapiens, CLL cell, RPMI 1640 with 10% fetal bovine serum, read-out: IC50 CLL Assay, 10% FBS
# [7] = RPMI 1640 with 10% autologous (human) plasma, read-out: IC50 CLL Assay, 10% plasma
# [8] = RPMI 1640 with 10% fetal bovine serum, read-out: IC50 CLL Assay, 10% FBS
# [9] = CLL cell, RPMI 1640 with 50% autologous (human) plasma, read-out: IC50 CLL Assay, 50% plasma
Compound,"IC50 [1, 5] [µM]","IC50 [1, 6] [µM]","IC50 [1, 9] [µM]",other results
"CC(/C=C/C(C)=C/[C@@H]1Cc2nc(cs2)CCC[C@H](NS(C)(=O)=O)C(=O)O[C@@H](C)C/C(C)=C/C=C\C(=O)O1)=C\CN(C)C [MZ624, N-((1^2Z,3S,6Z,8E,11 S,14S)-3-((1E,3E,5E)-7-(dimethylamino)-2,5-dimethylhepta-1,3,5-trien-1-yl)-9,11-dimethyl-5,13-dioxo-4,12-dioxa-1(2,4)-thiazolacycloheptadecaphane-6,8-dien-14-yl) methanesulfonamide]",0.65,0.37,–,–
"CC(C=CC(C)=CC1Cc2nc(cs2)CCCC(NC(=O)OC(C)(C)C(Cl)(Cl)Cl)C(=O)OC(C)CC(C)=CC=CC(=O)O1)=CCN(C)C [MZ576, 1,1,1-Trichloro-2-methylpropan-2-yl((1^2Z,3S,6Z,8E,11 S,14S)-3-((1E,3E,5E)-7-(dimethylamino)-2,5-dimethylhepta-1,3,5-trien-1-yl)-9,11-dimethyl-5,13-dioxo-4,12-dioxa-1 (2,4)-thiazolacycloheptadecaphane-6,8-dien-14-yl)carbamate]",–,–,–,"IC50 [1, 7]: 6.69 µM; IC50 [1, 8]: 3.2 µM"
"CC(Br)=CC1Cc2nc(cs2)CCCC(NC(=O)OC(C)(C)C(Cl)(Cl)Cl)C(=O)OC(C)CC(C)=CC=CC(=O)O1 [MZ569a, 1,1,1-Trichloro-2-methylpropan-2-yl ((1^2Z,3S,6Z,8E,11S,14S)-3-((E)-2-bromoprop-1-en-1-yl)-9,11-dimethyl-5,13-dioxo-4,12-dioxa-1(2,4)-thiazolacycloheptadecaphane-6,8-dien-1^4-yl) carbamate]",–,–,–,"IC50 [1, 7]: > 10 µM; IC50 [1, 8]: > 10 µM"
"CC(/C=C/C(C)=C/[C@@H]1Cc2nc(cs2)CCC[C@H](NC(=O)C(F)(F)F)C(=O)O[C@@H](C)C/C(C)=C/C=C\C(=O)O1)=C\CN(C)C [MZ579, N-((1^2Z,3S,6Z,8E,11S,14S)-3-((1E,3E,5E)-7-(dimethylamino)-2,5-dimethylhepta-1,3,5-trien-1-yl)-9,11-dimethyl-5,13-dioxo-4,12-dioxa-1(2,4)-thiazolacycloheptadecaphane-6,8-dien-14-yl)-2,2,2-trifluoroacetamide]",1.79,0.55,7.18,–
"CC(/C=C/C(C)=C/[C@@H]1Cc2nc(cs2)CCCCC(=O)O[C@@H](C)C/C(C)=C/C=C\C(=O)O1)=C\CN(C)C [DMDA Pat A, Des-methyl, des-amino pateamine A, reference compound]",5.37,0.71,> 10,plasma protein binding in human plasma [2]: highly protein bound; activity in xenograft models [3]: significant tumor reduction
"CC(/C=C/C(C)=C/[C@@H]1Cc2nc(cs2)[C@@H](C)C[C@@H](N)CC(=O)O[C@@H](C)C/C(C)=C/C=C\C(=O)O1)=C\CN(C)C [PatA, Pateamine A]",0.16,0.15,0.47,IC50 [4]: 0.00027 µM
"C/C(Br)=C\[C@@H]1Cc2nc(cs2)CCC[C@H](NC(=O)C(F)(F)F)C(=O)O[C@@H](C)C/C(C)=C/C=C\C(=O)O1 [MZ569b, N-((1^2Z,3S,6Z,8E,11S,14S)-3-((E)-2-Bromoprop-1-en-1-yl)-9,11-dimethyl-5,13-dioxo-4,12-dioxa-1 (2,4)-thiazolacycloheptadecaphane-6,8-dien-1^4-yl)-2,2,2-trifluoroacetamide]",> 10,> 10,–,–
"CC(/C=C/C(C)=C/[C@@H]1Cc2nc(cs2)CCC[C@H](N)C(=O)O[C@@H](C)C/C(C)=C/C=C\C(=O)O1)=C\CN(C)C [MZ577, (12Z,3S,6Z,8E,11S,14S)-14-Amino-3-((1E,3E,5E)-7-(dimethylamino)-2,5-dimethylhepta-1,3,5-trien-1-yl)-9,11-dimethyl-4,12-dioxa-1(2,4)-thiazolacycloheptadecaphane-6,8-diene-5,13-dione]",6.36,3.01,–,–
"CC(=O)N[C@@H]1CCCc2csc(n2)C[C@@H](/C=C(C)/C=C/C(C)=C/CN(C)C)OC(=O)/C=C\C=C(/C)C[C@H](C)OC1=O [MZ757, N-((1^2Z,3S,6Z,8E,11S,14R)-3-((1E,3E,5E)-7-(dimethylamino)-2,5-dimethylhepta-1,3,5-trien-1-yl)-9,11-dimethyl-5,13-dioxo-4,12-dioxa-1(2,4)-thiazolacycloheptadecaphane-6,8-dien-14-yl) acetamide]",0.45,< 0.05,–,–
"CC(=O)N[C@H]1CCCc2csc(n2)C[C@@H](/C=C(C)/C=C/C(C)=C/CN(C)C)OC(=O)/C=C\C=C(/C)C[C@H](C)OC1=O [MZ623, N-((1^2Z,3S,6Z,8E,11S,14S)-3-((1E,3E,5E)-7-(dimethylamino)-2,5-dimethylhepta-1,3,5-trien-1-yl)-9,11-dimethyl-5,13-dioxo-4,12-dioxa-1(2,4)-thiazolacycloheptadecaphane-6,8-dien-14-yl) acetamide]",0.46,0.31,–,–
"CC(/C=C/C(C)=C/[C@@H]1Cc2nc(cs2)CCC[C@H](NC(=O)OC(C)(C)C)C(=O)O[C@@H](C)C/C(C)=C/C=C\C(=O)O1)=C\CN(C)C [MZ578, tert-Butyl ((1^2Z,3S,6Z,8E,11S,14S)-3-((1E,3E,5E)-7-(dimethylamino)-2,5-dimethylhepta-1,3,5-trien-1-yl)-9,11-dimethyl-5,13-dioxo-4,12-dioxa-1(2,4)-thiazolacycloheptadecaphane-6,8-dien-14-yl) carbamate]",2.01,0.83,8.12,–
"C/C(Br)=C\[C@@H]1Cc2nc(cs2)CCC[C@H](NC(=O)OC(C)(C)C)C(=O)O[C@@H](C)C/C(C)=C/C=C\C(=O)O1 [MZ554, tert-Butyl-((1^2Z,3S,6Z,8E,11S,14S)-3-((E)-2-bromoprop-1-en-1-yl)-9,11-dimethyl-5,13-dioxo-4,12-dioxa-1(2,4)-thiazolacycloheptadecaphane-6,8-dien-14-yl)carbamate]",> 10,> 10,–,–
"1,1,1-Trichloro-2-methylpropan-2-yl ((1^2Z,3S,6Z,8E,11S,14R)-3-((1E,3E,5E)-7-(dimethylamino)-2,5-dimethylhepta-1,3,5-trien-1-yl)-9,11-dimethyl-5,13-dioxo-4,12-dioxa-1 (2,4)-thiazol acycloheptadecaphane-6,8-dien-14-yl)carbamate [MZ756]",–,–,–,"IC50 [1, 7]: 5.61 µM; IC50 [1, 8]: 1.89 µM"
